Source: BindingDB's records for patent US20240072809 (Avilar Therapeutics, 2024)

The compounds below were run against T1, Asialoglycoprotein receptor 1 (Homo sapiens, UniProt P07306) (assay: ASGPR Measured Using Surface Plasmon Resonance (SPR)).
T1 sequence (P07306 whole entry): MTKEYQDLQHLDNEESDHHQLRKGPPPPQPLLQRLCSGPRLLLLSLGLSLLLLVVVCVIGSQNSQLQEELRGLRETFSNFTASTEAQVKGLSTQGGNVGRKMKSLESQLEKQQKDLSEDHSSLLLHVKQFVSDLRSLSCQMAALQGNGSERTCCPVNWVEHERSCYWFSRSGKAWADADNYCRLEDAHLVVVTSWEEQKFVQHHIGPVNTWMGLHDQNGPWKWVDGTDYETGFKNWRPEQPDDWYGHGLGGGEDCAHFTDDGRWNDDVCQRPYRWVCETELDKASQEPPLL
Method: Recombinant ASGPR protein is first biotinylated using Maleimide-PEG2-biotin reagent (Pierce, 19-fold molar excess) in phosphate-buffered saline (PBS) solution overnight at 4° C. Excess amount of biotin in the reaction mixture is removed by Zeba desalting columns (Thermo). Biotinylation is confirmed by mass spectroscopic analysis of ASGPR. Biotinylated ASGPR is then immobilized on SA sensor chips (GE Healthcare) with an immobilization level ranging from 1500-3000 resonance units (RU). The running buffer is 50 mM Tris, pH7.5, 150 mM NaCl, 50 mM CaCl2), 0.01% P20, 3% DMSO. […] The compounds are diluted 3 folds with total 8 concentration points. Solutions containing serially diluted compounds are injected at a flow rate of 50 μL/min for 60 sec followed by a 180 sec dissociation phase for each concentration. Data is processed using the analysis software in Biacore 8K to perform background subtraction, double referencing and solvent correction.

Structure (SMILES)	Kd [µM]
OC[C@H]1OC[C@H](Nc2nc(Cl)cs2)[C@@H](O)[C@H]1O [US20240072809, Compound A99]	> 1000
OC[C@H]1OC[C@@H](Nc2nc(Cl)cs2)[C@@H](O)[C@H]1O [US20240072809, Compound A148]	> 20
OCCC[C@@H]1CO[C@H](CO)[C@H](O)[C@@H]1O [US20240072809, Compound A162]	> 1000

Further lines, results first:

Kd [µM]	Structure (SMILES)
< 100	CO[C@@H]1O[C@H](CO)[C@H](O)[C@H](O)[C@H]1Nc1ncns1 [US20240072809, Compound A110]
< 100	OC[C@H]1OC[C@@H](Nc2ncns2)[C@@H](O)[C@H]1O [US20240072809, Compound A147]
< 100	OC[C@H]1OC[C@H](Nc2nc(-c3ccncc3)ns2)[C@@H](O)[C@H]1O [US20240072809, Compound A319]
